Measured values reported in PMC6222798, “A Novel Class of Tyrosyl-DNA Phosphodiesterase 1 Inhibitors That Contains the Octahydro-2H-chromen-4-ol Scaffold” (Molecules : A Journal of Synthetic Chemistry and Natural …, 2018).
Like-named read-outs stand apart in the source and are kept apart here.

Experiments:
[1] = target: T1, human Tdp1 (residues 149-608) (Homo sapiens, UniProt Q9NUW8); test: Intrinsic protein fluorescence-based Tdp1 binding assay; conditions: supplementary figure legends; Tdp1 10 μM, 20 mM Tris, 250 mM NaCl, pH 8, triplicate
T1 construct: human Tdp1 (residues 149-608); made in house; host or cells: Escherichia coli BL21(DE3)
Method: In addition to the inhibition assay, the binding of our compounds to Tdp1 was also evaluated. An intrinsic protein fluorescence-based assay, which we have previously applied to study the binding of esters combining monoterpenoid and adamantane fragments, was applied. In agreement with the inhibition data, all our compounds were relatively strong binders to Tdp1, with dissociation constants (KD) in the low μM region (Table 1 and Supplementary Figures S1–S7). […] This is possibly due to the large hydrophobic surface of Tdp1. The slight discrepancy between the measured KD and IC50 values is likely due to these non-specific binding events.
Synthetic DNA encoding human Tdp1 (residues 149-608 [2]) was cloned into pET-28a(+) (GenScript), which was then transformed into Escherichia coli BL21(DE3) for recombinant protein production. Protein production was induced with 1 mM IPTG at 28 °C with overnight incubation. Tdp1 was purified using affinity and size exclusion chromatography. Fluorescence was measured using a PerkinElmer EnSpire Multimode Reader. Tdp1 concentration was 10 μM and compound concentrations were 1 μM, 2.5 μM, 5 μM, 10 μM, 15 μM, 20 μM, 30 μM, 50 μM, 100 μM, 200 μM, 350 μM, 500 μM, and 750 μM. Buffer was 20 mM Tris and 250 mM NaCl (pH 8). Excitation wavelength was 280 nm and intrinsic fluorescence was measured between 300 and 450 nm. Control experiments with Tdp1 or compound on its own were also conducted. Background fluorescence arising from the compounds was subtracted from the final spectrum. The total volume per well was 30 μL. Dissociation constant (KD) values were calculated using the following formula (1), which takes non-specific binding into account. I = Imax ×[LT]/KD+[LT] +Ns[LT]
I indicates changes in fluorescence intensity from the titrations, Imax indicates the maximum fluorescence intensity change, [LT] is the titrated ligand concentration, and Ns is the non-specific term. Non-linear curve fitting was conducted using SigmaPlot 13.0 (Systat Software, San Jose, CA, USA). Experiments were conducted in triplicate and the errors shown are standard derivations.

[2] = target: T2, Tdp1 (Homo sapiens, UniProt Q9NUW8); test: Real-time oligonucleotide biosensor-based Tdp1 inhibition assay; assay type: biochemical
T2 construct: inferred from pET 16B vector and Ni-chelating resin; made in house; host or cells: Escherichia coli BL21(DE3)
Method: The inhibition potency of our synthesised compounds against Tdp1 was evaluated by using a real-time oligonucleotide biosensor-based assay. In this assay, Tdp1 catalyses the removal of fluorophore quenchers from the 3′-end of a modified DNA substrate. […] Hexadecameric oligonucleotide was selected as a Tdp1 substrate, as it contains 5(6)-carboxyfluorescein (FAM) at the 5′-end and fluorophore quencher BHQ1 (Black Hole Quencher-1) at the 3′-end. This approach was used to determine the inhibitory properties of all the chromenes.
The pET 16B-Tdp1 was kindly provided by Dr. K.W. Caldecott (University of Sussex, United Kingdom). Recombinant Tdp1 was expressed in Escherichia coli BL21(DE3) and was purified by chromatography on Ni-chelating resin and phosphocellulose P11, as described in [29].
Real-time Tdp1 activity measurements were carried out as described in [9]. In brief, Tdp1-biosensor (50 nM) was incubated in a buffer that contains 50 mM Tris-HCl pH 8.0, 50 mM NaCl, and 7 mM β-mercaptoethanol (200 μL). The mixture was then supplemented with purified Tdp1 (1.3 nM) and various concentrations of the inhibitor. Fluorescence measurements (Ex485/Em520 nm) were carried out during the linear phase of reaction (from 0 to 8 min) every 55 s. The reactions were incubated at a constant temperature of 26 °C using a POLARstar OPTIMA fluorimeter (BMG LABTECH). The influence of the compounds was evaluated by comparing the fluorescence increase rate in their presence to that of 1.5% DMSO control wells. The data were imported into the MARS Data Analysis 2.0 program (BMG LABTECH), and IC50 values were calculated by non-linear curve fitting.

[3] = target: T2, Tdp1; conditions: Figure 1; cited from earlier work

T1 sequence (Q9NUW8 149-608): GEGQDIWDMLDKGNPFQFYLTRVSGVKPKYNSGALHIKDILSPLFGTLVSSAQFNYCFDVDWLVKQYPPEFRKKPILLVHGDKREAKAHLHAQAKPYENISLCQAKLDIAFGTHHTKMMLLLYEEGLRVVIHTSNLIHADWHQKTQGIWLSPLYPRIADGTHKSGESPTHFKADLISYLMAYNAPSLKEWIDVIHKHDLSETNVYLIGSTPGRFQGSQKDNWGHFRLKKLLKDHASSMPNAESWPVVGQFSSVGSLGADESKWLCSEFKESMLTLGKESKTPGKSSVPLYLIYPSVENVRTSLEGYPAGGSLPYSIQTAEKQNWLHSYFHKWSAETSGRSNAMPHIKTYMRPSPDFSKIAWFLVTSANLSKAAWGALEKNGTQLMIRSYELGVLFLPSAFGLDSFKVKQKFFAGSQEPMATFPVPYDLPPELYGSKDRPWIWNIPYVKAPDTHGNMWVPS
T2 sequence (Q9NUW8 whole entry): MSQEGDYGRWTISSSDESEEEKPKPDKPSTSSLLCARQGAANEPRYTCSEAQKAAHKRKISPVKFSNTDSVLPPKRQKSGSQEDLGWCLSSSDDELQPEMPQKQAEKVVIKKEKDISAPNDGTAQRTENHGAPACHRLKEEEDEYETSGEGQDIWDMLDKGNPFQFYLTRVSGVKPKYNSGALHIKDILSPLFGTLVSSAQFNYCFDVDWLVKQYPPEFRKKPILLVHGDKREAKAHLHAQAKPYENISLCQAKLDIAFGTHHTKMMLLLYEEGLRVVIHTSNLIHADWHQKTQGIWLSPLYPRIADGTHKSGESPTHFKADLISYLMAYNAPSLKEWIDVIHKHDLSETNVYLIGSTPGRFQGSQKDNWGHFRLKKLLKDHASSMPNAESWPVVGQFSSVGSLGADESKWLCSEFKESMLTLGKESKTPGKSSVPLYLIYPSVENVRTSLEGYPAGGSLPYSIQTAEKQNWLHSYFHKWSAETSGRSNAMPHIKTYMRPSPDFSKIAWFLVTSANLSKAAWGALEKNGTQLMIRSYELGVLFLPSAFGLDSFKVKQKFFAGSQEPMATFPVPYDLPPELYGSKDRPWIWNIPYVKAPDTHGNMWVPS

SMILES | Kd [1] | IC50 ([2]; Table 1, (4S) diastereomer) | IC50 ([2]; Table 2) | IC50 ([2]; Table 1, (4R) diastereomer) | IC50 [3]
C[C@@H]1CC[C@@H]2[C@H](C1)O[C@@H](c1ccc(N)s1)C[C@]2(C)O [(4S)-9, (2R,4S,4aR,7R,8aS)-4,7-dimethyl-2-(5-aminothiophen-2-yl)octahydro-2H-chromen-4-ol] |  | > 15 µM | > 15 µM |  | 
C[C@@H]1CC[C@@H]2[C@H](C1)O[C@@H](c1ccc(N)s1)C[C@@]2(C)O [(4R)-9, (2R,4R,4aR,7R,8aS)-4,7-Dimethyl-2-(5-aminothiophen-2-yl)octahydro-2H-chromen-4-ol] |  |  | > 15 µM | > 15 µM | 
CC1(C)[C@H]2CC=C(COc3ccc4c5c(c(=O)oc4c3)CCC5)[C@@H]1C2 [Compound 3] |  |  |  |  | 0.675 µM
C[C@@H]1CC[C@@H]2[C@@H](C1)O[C@@H](c1ccc([N+](=O)[O-])s1)C[C@@]2(C)O [(4R)-8, (2R,4aR,7R,8aS)-4,7-Dimethyl-2-(5-nitrothiophen-2-yl)octahydro-2H-chromen-4-ols] | 23.3 ± 7.4 µM |  | > 15 µM | > 15 µM | 
CC(=O)Nc1ccc([C@H]2C[C@](C)(O)[C@@H]3CC[C@@H](C)C[C@H]3O2)s1 [(4S)-10, N-(5-((2R,4S,4aR,7R,8aR)-4-Hydroxy-4,7-dimethyloctahydro-2H-chromen-2-yl)thiophen-2-yl)acetamide] |  | 5.8 ± 3 µM |  |  | 
C[C@@H]1CC[C@@H]2[C@@H](C1)O[C@@H](c1ccc(NC(=O)C(F)(F)F)s1)C[C@@]2(C)O [(4R)-11, 2,2,2-Trifluoro-N-(5-((2R,4R,4aR,7R,8aR)-4-hydroxy-4,7-dimethyloctahydro-2H-chromen-2-yl)thiophen-2-yl)acetamide] | 19.8 ± 2.4 µM |  |  | 4 ± 0.4 µM | 
O=c1cccc([C@H]2[C@H](c3ccc(O)cc3)[C@H](c3cccc(=O)o3)[C@H]2c2ccc(O)cc2)o1 [Compound 2, achyrodimer F] |  |  |  |  | 1 µM
C[C@@H]1CC[C@@H]2[C@H](C1)O[C@@H](c1ccc(NC(=O)C34CC5CC(CC(C5)C3)C4)s1)C[C@@]2(C)O [(4R)-13, N-(5-((2R,4R,4aR,7R,8aS)-4-Hydroxy-4,7-dimethyloctahydro-2H-chromen-2-yl)thiophen-2-yl)adamantane-1-carboxamide] | 12.4 ± 7.5 µM |  |  | 2.8 ± 0.6 µM | 

The next lines start with results.

Kd [1] | IC50 ([2]; Table 1, (4S) diastereomer) | IC50 ([2]; Table 2) | IC50 ([2]; Table 1, (4R) diastereomer) | SMILES | IC50 [3]
2 ± 1.2 µM | 1.4 ± 0.3 µM |  |  | C[C@@H]1CC[C@@H]2[C@@H](C1)O[C@@H](c1ccc(NC(=O)C(F)(F)F)s1)C[C@]2(C)O [(4S)-11, 2,2,2-Trifluoro-N-(5-((2R,4S,4aR,7R,8aR)-4-hydroxy-4,7-dimethyloctahydro-2H-chromen-2-yl)thiophen-2-yl)acetamide] | 
30.6 ± 9.33 µM | > 15 µM | > 15 µM |  | C[C@@H]1CC[C@@H]2[C@@H](C1)O[C@@H](c1ccc([N+](=O)[O-])s1)C[C@]2(C)O [(4S)-8, (2R,4aR,7R,8aS)-4,7-Dimethyl-2-(5-nitrothiophen-2-yl)octahydro-2H-chromen-4-ols] | 
 |  |  | 2.9 ± 0.8 µM | CC(=O)Nc1ccc([C@H]2C[C@@](C)(O)[C@@H]3CC[C@@H](C)C[C@H]3O2)s1 [(4R)-10, N-(5-((2R,4R,4aR,7R,8aR)-4-Hydroxy-4,7-dimethyloctahydro-2H-chromen-2-yl)thiophen-2-yl)acetamide] | 
 |  |  | 3.3 ± 0.2 µM | C[C@@H]1CC[C@@H]2[C@@H](C1)O[C@@H](c1ccc(NC(=O)c3ccccc3)s1)C[C@@]2(C)O [(4R)-12, N-(5-((2R,4R,4aR,7R,8aR)-4-Hydroxy-4,7-dimethyloctahydro-2H-chromen-2-yl)thiophen-2-yl)benzamide] | 
24.5 ± 5.7 µM | 5 ± 1.5 µM |  |  | C[C@@H]1CC[C@@H]2[C@@H](C1)O[C@@H](c1ccc(NC(=O)c3ccccc3)s1)C[C@]2(C)O [(4S)-12, N-(5-((2R,4S,4aR,7R,8aR)-4-Hydroxy-4,7-dimethyloctahydro-2H-chromen-2-yl)thiophen-2-yl)benzamide] | 
17.9 ± 3.4 µM | 1.24 ± 0.02 µM |  |  | C[C@@H]1CC[C@@H]2[C@H](C1)O[C@@H](c1ccc(NC(=O)C34CC5CC(CC(C5)C3)C4)s1)C[C@]2(C)O [(4S)-13, N-(5-((2R,4S,4aR,7R,8aS)-4-Hydroxy-4,7-dimethyloctahydro-2H-chromen-2-yl)thiophen-2-yl)adamantane-1-carboxamide] | 
